From patent US6399574B1 (priority 1997, dated 2002)
Where a SMILES comes first, the peptide text is derived from it. [ ]: non-standard residue; d: D form. Gla = N[C@@H](CC(C(=O)O)C(=O)O)C(=O)O

Experiments:
[1] = target: T1, NR1-1b/NR2B NMDA subtype (Homo sapiens, UniProt Q05586+Q13224); format: cell-based
T1 construct: expressed in transfected cells; host or cells: oocytes

[2] = target: T2, NR1. 1B subtype (Homo sapiens, UniProt Q05586); format: cell-based
T2 construct: expressed in transfected cells; host or cells: oocytes

[3] = system: Frings audiogenic seizure susceptible mice; settings: mouse, in vivo

T1 sequence (Q13224 27-1484, other chains not shown): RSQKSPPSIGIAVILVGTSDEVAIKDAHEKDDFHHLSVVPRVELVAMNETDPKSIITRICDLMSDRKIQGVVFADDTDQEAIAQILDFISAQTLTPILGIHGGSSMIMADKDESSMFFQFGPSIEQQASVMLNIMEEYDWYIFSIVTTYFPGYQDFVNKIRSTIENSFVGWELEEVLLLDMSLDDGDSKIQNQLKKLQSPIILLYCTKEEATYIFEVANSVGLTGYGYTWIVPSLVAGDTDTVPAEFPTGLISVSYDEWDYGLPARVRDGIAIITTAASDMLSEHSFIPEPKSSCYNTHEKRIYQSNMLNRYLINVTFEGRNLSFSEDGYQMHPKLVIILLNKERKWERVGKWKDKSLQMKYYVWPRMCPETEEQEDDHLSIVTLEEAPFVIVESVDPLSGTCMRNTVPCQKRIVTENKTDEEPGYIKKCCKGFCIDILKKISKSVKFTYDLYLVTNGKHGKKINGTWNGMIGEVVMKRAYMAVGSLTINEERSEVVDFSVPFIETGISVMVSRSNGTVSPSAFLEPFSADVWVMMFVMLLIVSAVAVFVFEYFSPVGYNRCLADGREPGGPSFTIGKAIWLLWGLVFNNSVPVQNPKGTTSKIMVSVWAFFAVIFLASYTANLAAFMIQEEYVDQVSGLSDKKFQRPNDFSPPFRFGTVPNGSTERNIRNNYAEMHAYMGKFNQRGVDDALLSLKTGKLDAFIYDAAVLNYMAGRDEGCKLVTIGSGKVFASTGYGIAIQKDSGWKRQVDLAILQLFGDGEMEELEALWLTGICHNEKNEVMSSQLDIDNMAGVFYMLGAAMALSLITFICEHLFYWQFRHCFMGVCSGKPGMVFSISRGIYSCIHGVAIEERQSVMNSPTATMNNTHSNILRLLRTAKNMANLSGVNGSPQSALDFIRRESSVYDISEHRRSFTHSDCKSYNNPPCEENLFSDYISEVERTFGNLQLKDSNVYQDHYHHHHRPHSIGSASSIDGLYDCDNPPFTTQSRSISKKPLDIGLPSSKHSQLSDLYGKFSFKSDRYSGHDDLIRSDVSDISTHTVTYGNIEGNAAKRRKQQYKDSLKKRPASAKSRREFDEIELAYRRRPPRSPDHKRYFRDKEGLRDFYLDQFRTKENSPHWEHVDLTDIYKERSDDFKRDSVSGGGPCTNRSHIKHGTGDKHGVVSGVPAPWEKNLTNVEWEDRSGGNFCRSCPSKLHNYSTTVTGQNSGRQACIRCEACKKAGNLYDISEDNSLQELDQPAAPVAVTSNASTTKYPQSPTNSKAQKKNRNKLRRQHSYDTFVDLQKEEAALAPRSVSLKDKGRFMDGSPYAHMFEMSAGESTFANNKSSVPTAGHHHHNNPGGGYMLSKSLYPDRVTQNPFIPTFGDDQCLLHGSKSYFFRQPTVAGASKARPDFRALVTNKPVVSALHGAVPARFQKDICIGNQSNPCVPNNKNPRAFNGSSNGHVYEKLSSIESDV

**Q.** How did the “affinity for NR1-1b/NR2B relative to NR1-1b/NR2D” value [1] turn out when CC[C@H](C)[C@H](NC(=O)[C@H](CC(N)=O)NC(=O)[C@H](CC(C(=O)O)C(=O)O)NC(=O)[C@H](CCCNC(=N)N)NC(=O)[C@H](C)NC(=O)[C@H](CC(C)C)NC(=O)[C@H](CC(C(=O)O)C(=O)O)NC(=O)[C@H](C)NC(=O)[C@H](C)NC(=O)[C@H](CCSC)NC(=O)[C@H](CCCCN)NC(=O)[C@H](C)NC(=O)[C@@H](NC(=O)[C@H](CC(C(=O)O)C(=O)O)NC(=O)[C@H](CC(C(=O)O)C(=O)O)NC(=O)[C@H](CCC(=O)O)NC(=O)CN)C(C)C)C(=O)N[C@@H](C)C(=O)N[C@@H](CCCCN)C(=O)NCC(=O)N[C@H]1CSSC[C@@H](C(=O)N[C@@H](Cc2ccc(O)cc2)C(=O)N2CCC[C@H]2C(=O)O)NC(=O)[C@H](CC(N)=O)NC(=O)[C@H](C(C)C)NC(=O)[C@H](CCCCN)NC1=O [Con R] was run?
**A.** greater than 50 fold

**Q.** And the “inhibition of the current produced in response to glutamate and glycine” value [1]?
**A.** approximately 95%

**Q.** And the “selectivity for the B splice variant in heteromeric complexes” value [1]?
**A.** selective for the B splice variant

**Q.** And the “inhibition of homomeric NR1 complex, 1B subtype” value [2]?
**A.** only inhibited the NR1. 1B subtype

**Q.** CSCC[C@H](NC(=O)[C@H](CCCCN)NC(=O)[C@H](CCC(N)=O)NC(=O)[C@H](Cc1ccc(O)cc1)NC(=O)[C@H](CC(C(=O)O)C(=O)O)NC(=O)[C@H](CC(C(=O)O)C(=O)O)NC(=O)[C@H](CCC(=O)O)NC(=O)CN)C(=O)N[C@@H](CC(C)C)C(=O)N[C@@H](CC(C(=O)O)C(=O)O)C(=O)N[C@@H](CC(N)=O)C(=O)N[C@@H](CC(C)C)C(=O)N[C@@H](CCCNC(=N)N)C(=O)N[C@@H](CC(C(=O)O)C(=O)O)C(=O)N[C@@H](C)C(=O)N[C@@H](CCC(=O)O)C(=O)N[C@H](C(=O)N[C@@H](CCCCN)C(=O)N[C@@H](CCCCN)C(=O)N[C@@H](CC(N)=O)C(=O)N[C@@H](C)C(N)=O)C(C)C [Con T, Gly-Glu-Xaa1-Xaa1-Tyr-Gln-Lys-Met-Leu-Xaa2-Asn-Leu-Arg-Xaa2-Ala-Glu-Val-Lys-Lys-Asn-Ala] (H-GE[Gla][Gla]YQKML[Gla]NLR[Gla]AEVKKNA-NH2) was tested. Which ED50 [3] did it give?
**A.** 0.017 nmols

**Q.** And the “ED50 (pmol, i.c.v.)” value [3]?
**A.** 5.1 pmol
